Patent US8323674B2, “Synergistic biocide composition comprising 2-methylisothiazoline-3-one” (Thor GmbH, priority 2000, dated 2012)

Key:
Assay type in all cases: cell-based
[1] = tested on: Pseudomonas aeruginosa; assay: MIC and synergistic index of MIT + NaPy in Müller-Hinton broth, 96 h/25° C.; details: for MIC value: only one biocide employed
Description: (§1) The synergistic index is calculated by the method of F. C. Kull et al., Applied Microbiology, vol. 9 (1961), p. 538. Here, the synergistic index is calculated using the following formula: Synergistic index SI=Qa/QA+Qb/QB.
(§2) If the synergistic index has a value of above 1, this means that antagonism is present. If the synergistic index assumes a value of 1, this means that an additive effect of the two biocides exists. If the synergistic index assumes a value of less than 1, this means that synergism of the two biocides exists.
Again, the experimental batches contained a Müller-Hinton broth as the nutrient medium. The cell density was 10^6 cells/ml. The incubation time was 96 hours at 25° C. Each sample was incubated in a shaker-incubator at 120 rpm.

[2] = tested on: Pseudomonas aeruginosa; assay: MIC and synergistic index of MIT + HCHO in Müller-Hinton broth, 96 h/25° C.; details: for Synergistic index Qa/QA + Qb/QB: method of Kull; for MIC: Pseudomonas aeruginosa
Description: In addition to the biocide component and water, the aqueous mixtures also comprised a nutrient medium, viz. a commercially available Müller-Hinton broth. The cell density was 10^6 cells/ml. The incubation time was 96 hours at 25° C. Each sample was incubated in a shaker-incubator at 120 rpm.
as §1, §2

[3] = tested on: Pseudomonas aeruginosa; assay: MIC and synergistic index of MIT + BNP in Müller-Hinton broth, 72 h/25° C.; details: for MIC: Pseudomonas aeruginosa
Description: as §1, §2
(§3) Again, the experimental batches contained a Müller-Hinton broth as the nutrient medium. The cell density was 10^6 cells/ml. The incubation time was 72 hours at 25° C. Each sample was incubated in a shaker-incubator at 120 rpm.

[4] = tested on: Pseudomonas aeruginosa; assay: MIC and synergistic index of MIT + PMG in Müller-Hinton broth, 48 h/25° C.; details: for MIC value: only one biocide employed
Description: as §1, §2
Again, the experimental batches contained a Müller-Hinton broth as the nutrient medium. The cell density was 10^6 cells/ml. The incubation time was 48 hours at 25° C. Each sample was incubated in a shaker-incubator at 120 rpm.

[5] = tested on: Pseudomonas aeruginosa; assay: MIC and synergistic index of MIT + OPP in Müller-Hinton broth, 72 h/25° C.; details: for MIC: Pseudomonas aeruginosa, 72 h
Description: as §1, §2, §3

[6] = tested on: Pseudomonas aeruginosa; assay: MIC and synergistic index of MIT + ZnPy in Müller-Hinton broth, 72 h/25° C.; details: for MIC value: only one biocide employed
Description: as §1, §2, §3

[7] = tested on: Pseudomonas aeruginosa; assay: MIC and synergistic index of MIT + BBIT in Müller-Hinton broth, 72 h/25° C.; details: for Synergistic index Qa/QA + Qb/QB: BBIT MIC of 500 ppm used as basis; for MIC value: only one biocide employed
Description: as §1, §2, §3

[8] = tested on: Pseudomonas aeruginosa; assay: MIC and synergistic index of MIT + HMBIT in Müller-Hinton broth, 48 h/30° C.; details: for MIC value: biocide used alone, 48 hours at 30° C.
Description: as §1, §2
Again, the experimental batches contained a Müller-Hinton broth as nutrient medium. The cell density was 10^6 microorganisms/ml. […] Each sample was incubated in a shaker-incubator at 120 rpm.

[9] = tested on: Pseudomonas aeruginosa; assay: MIC and synergistic index of MIT + BAC in Müller-Hinton broth, 48 h/25° C.; details: for MIC value: biocide used alone
Description: as §1, §2
Again, the experimental batches contained a Müller-Hinton broth as nutrient medium. The cell density was 10^6 microorganisms/ml. The incubation time was 48 hours at 25° C. Each sample was incubated in a shaker-incubator at 120 rpm.

[10] = Pseudomonas aeruginosa, incubation 48 h/25° C.

Compound: [Na+].[O-][n+]1ccccc1[S-] [NaPy, sodium pyrithione]
- MIC at NaPy concentration Qb [1]: 200 ppm
- MIC at Total concentration MIT + NaPy Qa + Qb [1]: 200 ppm
- Qb/QB [1]: 1.00
- Synergistic index Qa/QA + Qb/QB [1]: 1.00
- MIC value [1]: 200 ppm

Compound: Cn1sccc1=O [MIT, 2-methylisothiazolin-3-one]
- MIC at MIT concentration Qa [2]: 60 ppm
- MIC at Total concentration of MIT + HCHO Qa + Qb [2]: 60 ppm
- Qa/QA [2]: 1.00
- Synergistic index Qa/QA + Qb/QB [2]: 1.00
- MIC value ([2]; only one biocide used): 60 ppm
- MIC at MIT concentration Qa [3]: 40 ppm
- MIC at Total concentration of MIT + BNP Qa + Qb [3]: 40 ppm
- Qa/QA [3]: 1.00
- Synergistic index Qa/QA + Qb/QB [3]: 1.00
- MIC value ([3]; only one biocide employed): 40 ppm
- MIC at MIT concentration Qa [4]: 40 ppm
- MIC at Total concentration MIT + PMG Qa + Qb [4]: 40 ppm
- Qa/QA [4]: 1.00
- Synergistic index Qa/QA + Qb/QB [4]: 1.00
- MIC value [4]: 40 ppm
- MIC at MIT concentration Qa ([5]; 72 h/25° C.): 40 ppm
- MIC at Total concentration MIT + OPP Qa + Qb ([5]; 72 h/25° C.): 40 ppm
- Qa/QA ([5]; 72 h/25° C.): 1.00
- Synergistic index Qa/QA + Qb/QB ([5]; 72 h/25° C.): 1.00
- MIC value ([5]; only one biocide employed, 72 h/25° C.): 40 ppm
- Synergistic index Qa/QA + Qb/QB [6]: 1.00
- MIC at MIT concentration Qa ([6]; 72 h/25° C.): 40 ppm
- MIC at Total concentration MIT + ZnPy Qa + Qb ([6]; 72 h/25° C.): 40 ppm
- Qa/QA ([6]; 72 h/25° C.): 1.00
- MIC value ([6]; 72 h/25° C.): 40 ppm
- MIC at MIT concentration Qa [1]: 60 ppm
- MIC at Total concentration MIT + NaPy Qa + Qb [1]: 60 ppm
- Qa/QA [1]: 1.00
- Synergistic index Qa/QA + Qb/QB [1]: 1.00
- MIC value [1]: 60 ppm
- MIC at MIT concentration Qa [7]: 40 ppm
- MIC at Total concentration MIT + BBIT Qa + Qb [7]: 40 ppm
- Qa/QA [7]: 1.00
- Synergistic index Qa/QA + Qb/QB [7]: 1.00
- MIC value [7]: 40 ppm
- MIC at MIT concentration Qa [8]: 50 ppm
- MIC at Total concentration MIT + HMBIT Qa + Qb [8]: 50 ppm
- Qa/QA [8]: 1.00
- Synergistic index Qa/QA + Qb/QB [8]: 1.00
- MIC value [8]: 50 ppm
- Qa/QA ([9]; MIT concentration in mixture at MIC / MIC of MIT alone (40 ppm), 48 h/25° C.): 1.00
- MIC at MIT concentration Qa ([9]; MIT share of the MIC of the MIT + BAC mixture, Pseudomonas aeruginosa, incubation 48 h/25° C.): 40 ppm
- MIC at Total concentration MIT + BAC Qa + Qb [9, 10]: 40 ppm
- Synergistic index Qa/QA + Qb/QB [9, 10]: 1.00
- MIC value ([9]; 48 h/25° C.): 40 ppm

Compound: N-hydroxymethyl-1,2-benzoisothiazolin-3-one [HMBIT]
- MIC at HMBIT concentration Qb [8]: 150 ppm
- MIC at Total concentration MIT + HMBIT Qa + Qb [8]: 150 ppm
- Qb/QB [8]: 1.00
- Synergistic index Qa/QA + Qb/QB [8]: 1.00
- MIC value [8]: 150 ppm

Compound: O=[N+]([O-])C(Br)(CO)CO [BNP, 2-bromo-2-nitro-1,3-propanediol]
- Qb/QB [3]: 1.00
- Synergistic index Qa/QA + Qb/QB [3]: 1.00
- MIC ([3]; only one biocide employed, read-out: MIC value): 20 µg/mL
- MIC ([3]; read-out: MIC at BNP concentration Qb): 20 µg/mL
- MIC ([3]; read-out: MIC at Total concentration of MIT + BNP Qa + Qb): 20 µg/mL

Compound: dimethylbenzylalkonium chloride [BAC]
- Qb/QB ([9]; BAC concentration in mixture at MIC / MIC of BAC alone (80 ppm), 48 h/25° C.): 1.00
- MIC at BAC concentration Qb ([9]; BAC share of the MIC of the MIT + BAC mixture, Pseudomonas aeruginosa, incubation 48 h/25° C.): 80 ppm
- MIC at Total concentration MIT + BAC Qa + Qb [9, 10]: 80 ppm
- Synergistic index Qa/QA + Qb/QB [9, 10]: 1.00
- MIC value ([9]; 48 h/25° C.): 80 ppm

Compound: polyhexamethylenebiguanide [PMG]
- MIC at PMG concentration Qb [4]: 30 ppm
- MIC at Total concentration MIT + PMG Qa + Qb [4]: 30 ppm
- Qb/QB [4]: 1.00
- Synergistic index Qa/QA + Qb/QB [4]: 1.00
- MIC value [4]: 30 ppm

Compound: CCCCn1sc2ccccc2c1=O [BBIT, N-butyl-1,2-benzoisothiazolin-3-one]
- MIC at Total concentration MIT + BBIT Qa + Qb [7]: 500 ppm
- Synergistic index Qa/QA + Qb/QB [7]: 1.00
- Qb/QB ([7]; QB = 500 ppm used as basis): 1.00
- MIC at BBIT concentration Qb ([7]; for BBIT alone 500 ppm used as the basis for the calculation): 500 ppm
- MIC value [7]: over 500 ppm

Compound: zinc pyrithione [ZnPy]
- MIC at Total concentration MIT + ZnPy Qa + Qb ([6]; 72 h/25° C.): 100 ppm
- Qb/QB ([6]; 72 h/25° C., QB = 100 ppm used as basis): 1.00
- Synergistic index Qa/QA + Qb/QB ([6]; 72 h/25° C., ZnPy MIC of 100 ppm used as basis): 1.00
- MIC at ZnPy concentration Qb ([6]; 72 h/25° C., for ZnPy alone 100 ppm used as the basis for the calculation): 100 ppm
- MIC value ([6]; 72 h/25° C.): over 100 ppm

Compound: Oc1ccccc1-c1ccccc1 [OPP, o-phenylphenol]
- Qb/QB ([5]; 72 h/25° C.): 1.00
- Synergistic index Qa/QA + Qb/QB ([5]; 72 h/25° C.): 1.00
- MIC ([5]; read-out: MIC at OPP concentration Qb): 750 µg/mL
- MIC ([5]; read-out: MIC at Total concentration MIT + OPP Qa + Qb): 750 µg/mL
- MIC ([5]; read-out: MIC value): 750 µg/mL

Compound: C=O [HCHO, formaldehyde]
- Qb/QB [2]: 1.00
- MIC ([2]; only one biocide used, read-out: MIC value): 100 µg/mL
- MIC ([2]; read-out: MIC at HCHO concentration Qb): 100 µg/mL
- MIC ([2]; read-out: MIC at Total concentration of MIT + HCHO Qa + Qb): 100 µg/mL
- Synergistic index Qa/QA + Qb/QB [2]: 1.00
